This is an account of results in paper PMC2742306 (Molecular cell, 2009).

No end group written: not given here. βAla = NCCC(=O)O

Test [1] concerns the target T1, wild-type DegS (Escherichia coli, UniProt P0AEE3). The settings on record: 200 μM RseA, ref Sohn et al. (2007); cited from earlier work.
The target in test [2] is T2, K243D mutant of DegS (Escherichia coli, UniProt P0AEE3, K243D). Format: biochemical, E. coli.
Test [3] concerns the target T3, D320A DegS (Escherichia coli, UniProt P0AEE3, D320A). Kind of test: Global fit to MWC allosteric model, D320A DegS. Format: biochemical, E. coli. As to conditions: D320A, MWC global fit.
Test [4] addresses K243D/D320A mutant of DegS (Escherichia coli, UniProt P0AEE3, D320A/K243D). Format: biochemical, E. coli.
Test [5] deals with T2, K243D mutant of DegS. Kind of test: Global fit to MWC allosteric model, K243D DegS. In kind it is biochemical, E. coli. The settings on record: K243D, MWC global fit.
Test [6] concerns the target T3, D320A DegS. In kind it is biochemical, E. coli.
Test [7] concerns the target T1, wild-type DegS. As to conditions: saturating peptide, ref Sohn et al. (2007); cited from earlier work.
Test [8] has as its target T1, wild-type DegS. In kind it is biochemical, E. coli. As to conditions: wild-type DegS 0.9 μM trimer; 20 μM rhodamine-FP; saturating peptide.
Test [9] addresses K243D/M319A double mutant of DegS (Escherichia coli, UniProt P0AEE3, K243D/M319A). In kind it is biochemical, E. coli. As to conditions: saturating peptide.
The target of test [10] is T3, D320A DegS. Kind of test: OMP-peptide activation of RseA cleavage by D320A DegS. Format: biochemical, E. coli.
The target of test [11] is T1, wild-type DegS. In kind it is biochemical, E. coli.
Test [12] deals with T4, DegS K243D/D320A double mutant (residues 27–355, N-terminal His6 tag) (E. coli, UniProt P0AEE3 27-355, K243D | D320A).
T4 sequence (looked up): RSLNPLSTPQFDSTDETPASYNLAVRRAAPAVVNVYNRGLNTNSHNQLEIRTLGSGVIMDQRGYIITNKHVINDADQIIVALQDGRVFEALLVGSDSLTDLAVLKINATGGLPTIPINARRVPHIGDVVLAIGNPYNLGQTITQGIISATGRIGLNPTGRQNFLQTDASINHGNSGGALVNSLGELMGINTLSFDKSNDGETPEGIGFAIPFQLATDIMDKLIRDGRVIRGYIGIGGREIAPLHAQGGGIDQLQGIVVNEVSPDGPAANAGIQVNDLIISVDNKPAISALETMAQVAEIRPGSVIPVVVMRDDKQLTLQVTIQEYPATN
As to the kind of experiment: cell-based or functional assay.

Test [13] has as its target T5, DegS K243D/M319A double mutant (residues 27–355, N-terminal His6 tag) (E. coli, UniProt P0AEE3 27-355, K243D | M319A).
T5 sequence (looked up): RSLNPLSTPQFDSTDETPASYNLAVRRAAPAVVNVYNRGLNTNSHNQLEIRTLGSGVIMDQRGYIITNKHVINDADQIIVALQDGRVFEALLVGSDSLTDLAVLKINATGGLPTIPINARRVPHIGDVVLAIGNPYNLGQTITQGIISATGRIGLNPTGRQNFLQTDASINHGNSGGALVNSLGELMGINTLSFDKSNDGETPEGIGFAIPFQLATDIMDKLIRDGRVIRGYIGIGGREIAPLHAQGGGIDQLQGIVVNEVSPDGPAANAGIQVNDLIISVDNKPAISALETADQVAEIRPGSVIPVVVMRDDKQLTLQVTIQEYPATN
As to the kind of experiment: cell-based or functional assay.

Test [14] addresses T6, DegS K243D (residues 27–355, N-terminal His6 tag) (E. coli, UniProt P0AEE3 27-355, K243D).
T6 sequence (looked up): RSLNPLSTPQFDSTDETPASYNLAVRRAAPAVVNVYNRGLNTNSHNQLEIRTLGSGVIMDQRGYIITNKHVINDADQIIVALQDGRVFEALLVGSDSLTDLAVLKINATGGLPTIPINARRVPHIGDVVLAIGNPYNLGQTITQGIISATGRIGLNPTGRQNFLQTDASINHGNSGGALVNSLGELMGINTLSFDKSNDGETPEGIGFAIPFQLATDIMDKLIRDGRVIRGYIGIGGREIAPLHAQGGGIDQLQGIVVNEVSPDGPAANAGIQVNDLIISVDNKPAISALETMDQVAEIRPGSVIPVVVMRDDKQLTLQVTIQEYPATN
As to the kind of experiment: cell-based or functional assay.

The target of test [15] is T7, DegS D320A (residues 27–355, N-terminal His6 tag) (E. coli, UniProt P0AEE3 27-355, D320A).
T7 sequence (looked up): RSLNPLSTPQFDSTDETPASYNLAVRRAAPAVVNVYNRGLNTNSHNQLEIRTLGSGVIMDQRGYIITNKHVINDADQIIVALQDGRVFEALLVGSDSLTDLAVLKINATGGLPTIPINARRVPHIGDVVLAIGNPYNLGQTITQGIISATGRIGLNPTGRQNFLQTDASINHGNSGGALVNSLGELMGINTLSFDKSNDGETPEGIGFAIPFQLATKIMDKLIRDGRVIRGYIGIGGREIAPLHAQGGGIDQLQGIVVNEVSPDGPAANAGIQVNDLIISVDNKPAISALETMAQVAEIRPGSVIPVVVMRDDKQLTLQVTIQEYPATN
Kind of test: cell-based or functional assay.

Another test deals with DegS and its mutants. Kind of test: Global fit to MWC allosteric model, RseA substrate binding. In kind it is biochemical, E. coli.
Test [16] concerns the target T5, DegS K243D/M319A double mutant …. As to the kind of experiment: fluorescence polarisation.
Test [17] addresses T8, DegS M319A (residues 27–355, N-terminal His6 tag) (E. coli, UniProt P0AEE3 27-355, M319A).
T8 sequence (looked up): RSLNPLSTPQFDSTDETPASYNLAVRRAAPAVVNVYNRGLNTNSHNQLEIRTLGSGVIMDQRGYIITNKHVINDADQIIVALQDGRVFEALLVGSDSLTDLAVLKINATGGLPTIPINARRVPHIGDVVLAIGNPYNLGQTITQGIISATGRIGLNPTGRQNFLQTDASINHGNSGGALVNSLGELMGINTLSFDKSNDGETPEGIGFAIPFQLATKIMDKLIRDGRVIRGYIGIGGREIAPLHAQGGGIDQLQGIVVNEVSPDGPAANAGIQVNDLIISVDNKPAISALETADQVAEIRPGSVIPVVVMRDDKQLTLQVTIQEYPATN
Kind of test: fluorescence polarisation. In general terms: Polarisation of emitted light reports the rotation of a fluorescent probe.

The mark [18] stands for this setting: enzyme parameter, peptide-independent.
The mark [19] stands for this setting: peptide preference for relaxed state.
Setting [20] is: same value for all enzymes and peptides.

T1 sequence (P0AEE3 27-355): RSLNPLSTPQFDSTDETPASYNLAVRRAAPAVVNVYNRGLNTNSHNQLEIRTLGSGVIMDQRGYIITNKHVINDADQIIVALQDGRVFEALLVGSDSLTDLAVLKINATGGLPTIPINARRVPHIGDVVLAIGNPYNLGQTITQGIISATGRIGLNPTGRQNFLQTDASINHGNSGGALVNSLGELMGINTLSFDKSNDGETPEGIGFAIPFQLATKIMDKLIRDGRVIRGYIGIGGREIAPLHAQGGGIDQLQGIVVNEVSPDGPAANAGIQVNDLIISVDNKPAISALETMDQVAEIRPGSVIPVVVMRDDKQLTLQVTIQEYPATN

Consider DNRDGNVYYF [DNRDGNVYYF], for which the “Hill Constant (peptide activation)” value at wild-type DegS [1] is 1.8 ± 0.2. Moreover, the “Vmax (RseA cleavage)” value on K243D mutant of DegS [2] (K243D 0.3 μM trimer, saturating peptide (DNRDGNVYYF 30 μM), 23 °C, pH 8.3) was 1.8 ± 0.2 s^−1enz^−1; in test [4] (K243D/D320A 0.3 μM trimer, DNRDGNVYYF 30 μM, 23 °C, pH 8.3), 2.0 ± 0.3 s^−1enz^−1; at D320A DegS [6] (D320A 0.3 μM trimer, saturating peptide (DNRDGNVYYF 30 μM), 23 °C, pH 8.3), 2.5 ± 0.3 s^−1enz^−1; on wild-type DegS [7], 1.1 ± 0.2 s^−1enz^−1; in test [9] (23 °C, pH 8.3) it was 1.4 ± 0.1 s^−1enz^−1. Also, the “Hill Constant (RseA substrate)” value on K243D mutant of DegS [2] (K243D, saturating peptide) is 1.3 ± 0.1; in test [4] (K243D/D320A, saturating OMP peptide), 1.1 ± 0.1; on D320A DegS [6] (D320A, saturating peptide), 1.1 ± 0.2; on wild-type DegS [7] it was 1.6 ± 0.2; in test [9], 1.2 ± 0.1. Also, the “KRS, dissociation constant of RseA substrate for R-state subunit” value was 150 µM at D320A DegS [3] (RseA, not peptide, binding) and 150 µM at K243D mutant of DegS [5] (RseA, not peptide, binding). The “KTS, dissociation constant of RseA substrate for T-state subunit” value on D320A DegS [3] (RseA, not peptide, binding) stood at 505 µM; on K243D mutant of DegS [5] (RseA, not peptide, binding), 505 µM. The “L0, equilibrium constant T/R of unliganded enzyme” value at D320A DegS [3] (setting [18]) was 350; on K243D mutant of DegS [5] (setting [18]), 180; at wild-type DegS [11] (MWC global fit, enzyme parameter, peptide-independent), 15000. In addition, the KTP/KRP is 3.3 on D320A DegS [3] (setting [19]); 2.0 on K243D mutant of DegS [5] (setting [19]); 6.8 on wild-type DegS [11] (MWC global fit, peptide preference for relaxed state). Further, the “kr, rate constant for cleavage of RseA by substrate-bound R-state subunits” value at D320A DegS [3] (setting [20]) amounted to 3.3 s⁻¹; on K243D mutant of DegS [5] (setting [20]), 3.3 s⁻¹; on wild-type DegS [11] (MWC global fit, same value for all enzymes and peptides), 3.3 s⁻¹. Moreover, the “rate of rhodamine-FP modification in presence of peptide (order)” value at wild-type DegS [8] is recorded as “slower”. The EC50 (usually the concentration at which the effect is half-maximal) at D320A DegS [10] stood at 200 ± 100 nM. The “DegS molecules in active conformation” value on wild-type DegS [11] (saturating peptide and saturating RseA substrate, MWC model) turned out to be 45%.

B1: 35S-labeled variant of the periplasmic domain of E. coli RseA (residues 121–216) with a C-terminal His6 tag (domain or fragment, UniProt P0AFX7 121-216, looked up)
chain: YNGQSETSQQPETPVFNTLPMMGKASPVSLGVPSEATANNGQQQQVQEQRRRINAMLQDYELQRRLHSEQLQFEQAQTQQAAVQVPGIQTLGTQSQ
modifications: 35S-labeled
As for B1, the “KM of RseA cleavage with saturating … peptide” value in test [12] was determined as 630 µM; in test [13], 840 µM; in test [14], 580 µM; in test [15], 520 µM. The “KM of RseA cleavage with saturating YYF peptide” value in [13] stood at 490 µM; in test [14], 440 µM; in [15] it was 430 µM.

B2: RseA: 35S-labeled variant of the periplasmic domain of E. coli RseA (residues 121–216) with a C-terminal His6 tag (protein)
chain: YNGQSETSQQPETPVFNTLPMMGKASPVSLGVPSEATANNGQQQQVQEQRRRINAMLQDYELQRRLHSEQLQFEQAQTQQAAVQVPGIQTLGTQSQ
modifications: 35S-labeled; left off: His6, C-terminal, state not stated
For the molecule B2, the “preference for relaxed state in substrate-saturated trimer” value in the test with DegS and its mutants is “approximately 40 fold”.
For {fluoresceine-βAla}-KKDNRDGNYYF [OMP peptide fluoresceine-β-alanine-KKDNRDGNYYF], the Kd (usually the constant that tells how readily two partners part at equilibrium) in test [16] came out at 180 nM; in test [17], 140 nM.
